Laboratory results: US11712438B2, “Phenyl derivatives as PGE2 receptor modulators” (IDORSIA PHARMACEUTICALS LTD, priority 2017, dated 2023)

Legend:
Assay in all cases: cell-based
[1] = molecular target: EP2 (Homo sapiens, UniProt P43116);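 also: SF295 glioblastoma cells with endogenous EP2 only, PGE2-stimulated cAMP accumulation read by HTRF competitive immunoassay, 45 min pre-incubation then 30 min at room temperature, IBMX in buffer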
[2] = molecular target: PTRGER4 (EP4) (Homo sapiens, UniProt P35408);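 also: assay plate preincubated 15 min at 37 °C, after which PGE2 was added at 20 nM final and incubation continued 120 min at 37 °C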
Chain of PTRGER4 (EP4) (P35408 whole entry): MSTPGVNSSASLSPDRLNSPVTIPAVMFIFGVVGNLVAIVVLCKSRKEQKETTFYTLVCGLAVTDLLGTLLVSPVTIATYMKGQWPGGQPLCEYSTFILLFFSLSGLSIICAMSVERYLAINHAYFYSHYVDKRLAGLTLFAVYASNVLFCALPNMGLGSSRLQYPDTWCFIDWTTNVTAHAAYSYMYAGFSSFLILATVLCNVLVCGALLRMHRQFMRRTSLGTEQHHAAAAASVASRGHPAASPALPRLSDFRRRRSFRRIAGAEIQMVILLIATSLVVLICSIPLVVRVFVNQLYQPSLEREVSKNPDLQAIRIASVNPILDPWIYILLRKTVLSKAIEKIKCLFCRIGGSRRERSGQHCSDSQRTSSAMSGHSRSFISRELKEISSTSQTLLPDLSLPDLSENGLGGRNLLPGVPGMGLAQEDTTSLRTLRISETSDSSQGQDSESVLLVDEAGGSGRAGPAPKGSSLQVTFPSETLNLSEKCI
Source text: The assay is using the PathHunter™ HEK 293 PTGER2 and PTGER4 b-arrestin cell lines from DiscoverX. The system is based on the Enzyme Fragment Complementation Technology. Two complementing fragments of the b-galactosidase enzyme are expressed within stably transfected cells. The larger portion of b-gal, termed EA for Enzyme Acceptor, is fused to the C-terminus of b-arrestin 2. The smaller fragment, termed ProLink™ tag, is fused to PTGER2 (EP2) or PTRGER4 (EP4) at the C-terminus. Upon activation, b-arrestin is recruited which forces the interaction of ProLink and EA, allowing complementation of the two fragments of b-gal and the formation of a functional enzyme which is capable of hydrolysing the substrate and generating a chemiluminescent signal.
The HEK 293 PTGER4 b-arrestin cells (DiscoverX 93-030-4C1) are detached from culture dishes with a cell dissociation buffer (Invitrogen, 13151-014), and collected in growing medium (GM: DMEM+Glutamax-I (Invitrogen 32430)/10% FCS, 1% Penicilin/streptomycin). 5000 cells per well of a 384 well plate (white with white bottom Greiner 781080) are seeded in 20 ul per well of GM. Plate is incubated at 37° C., 5% CO2 for 24 hours.
Stock solutions of test compounds are made at a concentration of 10 mM in DMSO, and serially diluted in DMSO to concentrations required for inhibition dose response curves (tested concentration range 10 μM-2 nM or 1 μM-0.2 nM).
PGE2 (Cayman 14010, stock solution: 100 uM in DMSO) is used as agonist at 20 nM final concentration, corresponding to EC80.
Five microliters of diluted compounds are transferred into the assay plate. Plate is pre-incubated 15 minutes at 37° C. Then five microliters of PGE2 (final conc. 20 nM) are transferred into the assay plate. Plate is incubated 120 minutes at 37° C.
Twelve μl of reagent are transferred to the assay plate and incubate for 1 hour at room temperature in the dark. Luminescence counts are read on a BMG Fluostar Optima reader according to manufacturers instructions.
For each compound concentration calculate of the percentage of activity compared to DMSO control value as average±STDEV. (each concentration is measured in duplicate)
When compounds were measured multiple times, mean values are given.

[3] = molecular target: PTGER2 (EP2) (Homo sapiens, UniProt P43116)
Chain of PTGER2 (EP2) (P43116 whole entry): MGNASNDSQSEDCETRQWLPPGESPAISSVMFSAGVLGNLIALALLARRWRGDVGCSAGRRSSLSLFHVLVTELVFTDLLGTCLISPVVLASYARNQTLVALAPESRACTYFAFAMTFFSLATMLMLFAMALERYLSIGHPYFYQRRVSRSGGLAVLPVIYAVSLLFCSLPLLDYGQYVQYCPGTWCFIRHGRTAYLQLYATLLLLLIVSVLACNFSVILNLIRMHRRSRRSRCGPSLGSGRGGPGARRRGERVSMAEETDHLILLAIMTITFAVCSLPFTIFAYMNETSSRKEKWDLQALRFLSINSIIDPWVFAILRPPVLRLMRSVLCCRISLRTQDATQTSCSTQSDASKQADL

[4] = molecular target: EP4 (Homo sapiens, UniProt P35408);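 also: inhibition of PGE2-evoked (6 nM) cAMP accumulation in BT549 breast cancer cells endogenously expressing EP4, cAMP read by HTRF competitive immunoassay after 30 min at room temperature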
Chain of EP4 (P35408 whole entry): as the sequence (P35408 whole entry) above

Chain of EP2 (P43116 whole entry): as the sequence (P43116 whole entry) above

Row | IC50 [1] [nM] | IC50 [2] [nM] | IC50 [3] [nM] | IC50 [4] [nM] | Structure (SMILES)
1 | 24 | 3 | 26 | 10 | CCOc1cc(C(F)(F)F)ccc1CCNc1cc(-c2cc(OCC)c(-c3noc(=O)[nH]3)s2)ncn1 [Example 90, 3-(3-Ethoxy-5-{6-[2-(2-ethoxy-4-trifluoromethyl-phenyl)-ethylamino]-pyrimidin-4-yl}-thiophen-2yl)-[1,2,4]oxadiazol-5(4H)-one]
2 | 45 | 351 | 46 | 76 | O=C(O)c1ccc(-c2cc(NCCc3c(F)cc(Br)cc3F)ncn2)cc1OC1CC1 [Example 259, 4-{6-[2-(4-Bromo-2,6-difluoro-phenyl)-ethylamino]-pyrimidin-4-yl}-2-cyclopropoxy-benzoic acid]
3 | 249 | 14 | 39 | 189 | CCOc1cc(-c2cc(NCCc3ccc(Br)cc3)ncn2)sc1NC(N)=O [Example 146, (5-{6-[2-(4-Bromo-phenyl)-ethylamino]-pyrimidin-4-yl}-3-ethoxy-thiophen-2-yl)-urea]
4 | 165 | 33 | 145 | 25 | CCOc1cc(-c2cc(NCCc3ccc(C)c(C)c3)ncn2)sc1C(=O)O [Example 68, 5-{6-[2-(3,4-Dimethyl-phenyl)-ethylamino]-pyrimidin-4-yl}-3-ethoxy-thiophene-2-carboxylic acid]
5 | 27 | 3 | 15 | 8 | CCOc1cc(-c2cc(NCCc3cc(C)c(Br)cc3F)ncn2)sc1-c1noc(=O)[nH]1 [Example 114, 3-(5-{6-[2-(4-Bromo-2-fluoro-5-methyl-phenyl)-ethylamino]-pyrimidin-4-yl}-3-ethoxy-thiophen-2yl)-[1,2,4]oxadiazol-5(4H)-one]
6 | 92 | 96 | 165 | 34 | CCOc1cc(-c2cc(NCCc3ccc(Cl)c(Cl)c3C)ncn2)sc1C(=O)O [Example 181, 5-{6-[2-(3,4-Dichloro-2-methyl-phenyl)-ethylamino]-pyrimidin-4-yl}-3-ethoxy-thiophene-2-carboxylic acid]
7 | 65 | 1000 | 89 | 396 | CCOc1cc(-c2cc(NCCc3ccccc3C)ncn2)sc1C(=O)O [Example 55, 3-Ethoxy-5-[6-(2-o-tolyl-ethylamino)-pyrimidin-4-yl]-thiophene-2-carboxylic acid]
8 | 50 | 27 | 17 | 59 | CCOc1cc(-c2cc(NCCc3c(F)ccc(F)c3Cl)ncn2)sc1-c1noc(=O)[nH]1 [Example 100, 3-(5-{6-[2-(2-Chloro-3,6-difluoro-phenyl)-ethylamino]-pyrimidin-4-yl}-3-ethoxy-thiophen-2yl)-[1,2,4]oxadiazol-5(4H)-one]
9 | 41 | 8 | 51 | 6 | CCOc1cc(-c2cc(NCCc3cc(F)c(C(F)F)cc3OC)ncn2)sc1C(=O)O [Example 185, 5-{6-[2-(4-Difluoromethyl-5-fluoro-2-methoxy-phenyl)-ethylamino]-pyrimidin-4-yl}-3-ethoxy-thiophene-2-carboxylic acid]
10 | 99 | 57 | 64 | 34 | CCOc1cc(-c2cc(NCCc3ccc(Br)cc3)nc(C)n2)sc1-c1noc(=O)[nH]1 [Example 157, 3-(5-{6-[2-(4-Bromo-phenyl)-ethylamino]-2-methyl-pyrimidin-4-yl}-3-ethoxy-thiophen-2-yl)-[1,2,4]oxadiazol-5(4H)-one]
11 | 8 | 33 | 13 | 66 | CCOc1cc(-c2cc(NCCc3c(F)cc(Br)cc3F)ncn2)sc1C(=O)NS(C)(=O)=O [Example 154, N-(5-{6-[2-(4-Bromo-2,6-difluoro-phenyl)-ethylamino]-pyrimidin-4-yl}-3-ethoxy-thiophene-2-carbonyl)-methanesulfonamide]
12 | 46 | 25 | 28 | 51 | CCOc1cc(-c2cc(NCCc3c(F)cc(Br)cc3F)ncn2)sc1CC(=O)O [Example 48, (5-{6-[2-(4-Bromo-2,6-difluoro-phenyl)-ethylamino]-pyrimidin-4-yl}-3-ethoxy-thiophen-2-yl)-acetic acid]
13 | 20 | 35 | 12 | 62 | CCOc1cc(-c2cc(NCCc3c(F)cc(Br)cc3F)ncn2)sc1C(=O)NS(N)(=O)=O [Example 155, 5-(6-((4-Bromo-2,6-difluorophenethyl)amino)pyrimidin-4-yl)-3-ethoxy-N-sulfamoylthiophene-2-carboxamide]
14 | 67 | 43 | 199 | 73 | CCc1nc(-c2cc(NCCc3c(F)cc(Br)cc3F)ncn2)sc1C(=O)O [Example 149, 2-{6-[2-(4-Bromo-2,6-difluoro-phenyl)-ethylamino]-pyrimidin-4-yl}-4-ethyl-thiazole-5-carboxylic acid]
15 | 1130 | 251 | 364 | 280 | CC(C)Cc1cc(-c2cc(NCCc3c(F)cc(Br)cc3F)ncn2)ccc1CC(=O)O [Example 244, (4-{6-[2-(4-Bromo-2,6-difluoro-phenyl)-ethylamino]-pyrimidin-4-yl}-2-isobutyl-phenyl)-acetic acid]
16 | 512 | 3030 | 717 | 775 | CCOc1cc(-c2cc(NCCc3ccccc3F)ncn2)sc1C(=O)O [Example 56, 3-Ethoxy-5-{6-[2-(2-fluoro-phenyl)-ethylamino]-pyrimidin-4-yl}-thiophene-2-carboxylic acid]
17 | 234 | 308 | 80 | 320 | O=c1[nH]c(-c2ccc(-c3cc(NCCc4c(F)cc(Br)cc4F)ncn3)cn2)no1 [Example 289, 3-(5-{6-[2-(4-Bromo-2,6-difluoro-phenyl)-ethylamino]-pyrimidin-4-yl}-pyridin-2-yl)-[1,2,4]oxadiazol-5(4H)-one]
18 | 84 | 2 | 12 | 2 | CCOc1cc(-c2cc(NCCc3c(F)cc(Br)cc3F)ncn2)sc1-c1noc(=S)[nH]1 [Example 295, 3-(5-{6-[2-(4-Bromo-2,6-difluoro-phenyl)-ethylamino]-pyrimidin-4-yl}-3-ethoxy-thiophen-2-yl)-[1,2,4]oxadiazole-5(4H)-thione]
19 | 184 | 50 | 81 | 165 | CCOc1cc(-c2cc(NCCc3c(F)cc(Br)cc3F)ncn2)ccc1OCCC(=O)O [Example 45, 3-(4-{6-[2-(4-Bromo-2,6-difluoro-phenyl)-ethylamino]-pyrimidin-4-yl}-2-ethoxy-phenoxy)-propionic acid]

Row | Structure (SMILES) | IC50 [1] [nM] | IC50 [2] [nM] | IC50 [3] [nM] | IC50 [4] [nM]
20 | CCCCOc1cc(-c2cc(NCCc3c(F)cc(Br)cc3F)ncn2)cc(F)c1C(=O)O [Example 167, 4-{6-[2-(4-Bromo-2,6-difluoro-phenyl)-ethylamino]-pyrimidin-4-yl}-2-butoxy-6-fluoro-benzoic acid] | 198 | 431 | 42 | 1080
